Data published in PubChem BioAssay (NCI).
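Growth conditions: 96-well plates. Treatment: test compound, 48 hours, 5 concentrations. Analysis: linear interpolation between bracketing concentrations; unreached endpoints set to highest concentration. TGI marks complete inhibition of growth.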

Columns and labels:
Assay in all cases: DTP human tumour cell line panel, 48 h
[1] = system: SK-MEL-2 melanoma
[2] = system: SK-MEL-28 melanoma
[3] = system: T-47D breast
[4] = system: TK-10 renal
[5] = system: HL-60(TB) leukemia
[6] = system: CAKI-1 renal
[7] = system: NCI-H226 lung
[8] = system: IGROV1 ovarian
[9] = system: BT-549 breast
[10] = system: KM12 colon
[11] = system: SN12C renal
[12] = system: M14 melanoma
[13] = system: EKVX NSCLC
[14] = system: RXF 393 renal
[15] = system: MDA-MB-231 breast
[16] = system: HOP-92 NSCLC

Row | Structure (SMILES) | TGI [1] | TGI [2] | TGI [3] | TGI [4] | TGI [5] | TGI [6] | TGI [7] | TGI [8] | TGI [9] | TGI [10] | TGI [11] | TGI [12] | TGI [13] | TGI [14] | TGI [15] | TGI [16]
1 | O=c1oc2ccccc2c(Nc2ccc3c(c2)Sc2ccccc2O3)c1[N+](=O)[O-] | 54.7 µM | 73.3 µM | 69.7 µM | 53.9 µM | 49.7 µM | > 100 µM | 76.5 µM | > 100 µM | 85.4 µM | 94.3 µM | > 100 µM | > 100 µM | 90.6 µM | 61.9 µM | 47.9 µM | 71.2 µM
2 | O=C1CS(=O)(=O)C(c2cccc(Oc3ccccc3)c2)N1c1ccc(Cl)cc1 (centres undefined) | 31.9 µM | > 100 µM | > 100 µM | 61.4 µM | > 100 µM | 64.8 µM | 68.3 µM | 39 µM | 90.1 µM | > 100 µM | 57.7 µM | 76.2 µM | 51.3 µM | 43 µM | > 100 µM | 23.8 µM
3 | CS(=O)(=O)Nc1ccc2ccccc2c1-c1c(NS(C)(=O)=O)ccc2ccccc12 | > 25 µM | > 25 µM | > 25 µM | > 25 µM | > 25 µM | > 25 µM | > 25 µM | > 25 µM | > 25 µM | > 25 µM | > 25 µM | > 25 µM | > 25 µM | > 25 µM | > 25 µM | > 25 µM
4 | Cc1ccc2c(ccc(/C=C/c3ccc(O)c4ncccc34)[n+]2C)c1 | 36.3 µM | 33.1 µM | > 32.1 µM | 38.9 µM | > 100 µM | 33.3 µM | 46.5 µM | 45.6 µM | > 29 µM | 33.3 µM | 35.6 µM | 40.3 µM | 76.6 µM | 37.8 µM | > 61.8 µM | 31.1 µM
